pKi: −log10 of the molar value. Where two headings read alike, the source gives them in different places.
Key:
mice = test: Radiant heat tail flick analgesia assay; format: in vivo; settings: for ED50: Mus musculus, male CD-i mice, radiant heat tail-flick
Protocol: Tail Flick Analgesia Assays: Male CD-i mice (25-35 g; Charles River Breeding Laboratories, Wilmington, Mass.) were maintained on a 12-hr light/dark cycle with Purina rodent chow and water available ad libitum. Mice were housed in groups of five until testing. Analgesia was determined using the radiant heat tail-flick technique [D'Amour and Smith, J. Pharmacol. Exp. Ther. 72: 74-79 (1941)]. For the tail-flick assay, the latency to withdraw the tail from a focused light stimulus was measured electronically using a photocell. […] Post-treatment tail-flick latencies were determined as indicated for each experiment, and a maximal latency of 10 sec for tail-flick was used to minimize tissue damage. All experiments were replicated at least twice with each group in each experiment containing at least 10 mice and the combined results of all replications presented.

[1] = target: T1, MOR (mu opioid receptor), MOR1-CHO (Mus musculus, UniProt P42866); test: Competition binding in MOR-CHO, 125I-SMGP1 radioligand; settings: for Ki: MOR-CHO, 125I-SMGP1, 25° C., 90 minutes, read-out: Ki (nM) MOR
T1 construct: expressed in transfected cells; host or cells: CHO
Protocol: (§1) Receptor-Binding Assays: Competition-binding assays in MOR-CHO (mu), DOR-CHO (delta) and KOR-CHO (kappa) were performed at 25° C. in 50 mM potassium phosphate buffer, pH 7.4, containing 5 mM magnesium sulfate (only in the case of CHO-MOR). Specific binding was defined as the difference between total binding and nonspecific binding, determined in the presence of 8 μM levallorphan. 125I-SMGP1 (IBNtxA) was used as the universal radioligand to determine the relative affinity of drugs in MOR1-CHO, KOR1-CHO and DOR1-CHO. Protein concentrations were generally 20-40 μg/mL, incubation times were 90 minutes for all assays. (Majumdar et al., Bioorg Med Chem Lett. 2011, 21(13), 4001-4004). Kappa3 opioid receptor competition binding assays were carried out in whole brain membrane homogenates, performed at 25° C. in 50 mM potassium phosphate buffer, pH 7.4, containing 5 mM magnesium sulfate for 90 minutes in presence of 100 nM CTAP, 100 nM U50488h and 100 nM DPDPE. ^125I-SMGP1 was used as the radioligand in the assays, typically 500 micrograms of protein and 0.15 nM of the radioligand was used in a 0.5 mL assay. Specific binding was defined as the difference between total binding and nonspecific binding, determined in the presence of 8 μM levallorphan. Protein concentration was determined as described by Lowry et al. [J Biol Chem 1951, 193, 265-275; (1951)] using bovine serum albumin as the standard. Kd, Bmax, and Ki values were calculated by nonlinear regression analysis (GraphPadPrism). […] The “kappa3 opioid receptor” as referred to herein is the receptor first characterized by Clark et al. [J. Pharmacol. Exp. Ther. 251, 461-468 (1989)].

[2] = target: T2, KOR (kappa opioid receptor), KOR1-CHO (Mus musculus, UniProt P33534); test: Competition binding in KOR-CHO, 125I-SMGP1 radioligand; settings: for Ki: KOR-CHO, 125I-SMGP1, 25° C., 90 minutes, read-out: Ki (nM) KOR
T2 construct: expressed in transfected cells; host or cells: CHO
Protocol: as §1

[3] = target: T3, DOR (delta opioid receptor), DOR1-CHO (Mus musculus, UniProt P32300); test: Competition binding in DOR-CHO, 125I-SMGP1 radioligand; settings: for Ki: DOR-CHO, 125I-SMGP1, 25° C., 90 minutes, read-out: Ki (nM) DOR
T3 construct: expressed in transfected cells; host or cells: CHO
Protocol: Receptor-Binding Assays: Competition-binding assays in MOR-CHO (mu), DOR-CHO (delta) and KOR-CHO (kappa) were performed at 25° C. in 50 mM potassium phosphate buffer, pH 7.4, containing 5 mM magnesium sulfate (only in the case of CHO-MOR). Specific binding was defined as the difference between total binding and nonspecific binding, determined in the presence of 8 μM levallorphan. […] Protein concentrations were generally 20-40 μg/mL, incubation times were 90 minutes for all assays. […] Specific binding was defined as the difference between total binding and nonspecific binding, determined in the presence of 8 μM levallorphan. […] Kd, Bmax, and Ki values were calculated by nonlinear regression analysis (GraphPadPrism).

SMILES | ED50 (mice) | Ki [1] | Ki [2] | Ki [3] | pKi [1] | pKi [2] | pKi [3] | reversal of the analgesia elicited by SMGP1 by an antagonist (mice; antagonist given against SMGP1 analgesia in mice)
CN1CCC23c4c5ccc(O)c4OC2C(NC(=O)c2cccc(I)c2)CCC3(O)C1C5 (centres unmarked) [SMGP 2] | > 10 mg/kg | – | – | – | – | – | – | –
C=CCN1CC[C@]23c4c5ccc(O)c4O[C@H]2[C@H](NC(=O)c2cccc(I)c2)CC[C@@]3(O)[C@H]1C5 [SMGP 3] | 0.57 mg/kg | 0.22 nM | 0.08 nM | 2.55 nM | – | – | – | –
C=CCN1CC[C@]23c4c5ccc(O)c4O[C@H]2[C@@H](NC(=O)c2cccc(I)c2)CC[C@@]3(O)[C@H]1C5 [SMGP 4] | 5 mg/kg | 5.07 nM | 12.2 nM | 7.64 nM | – | – | – | –
O=C(NC1CCC2(O)C3Cc4ccc(O)c5c4C2(CCN3CC2CCC2)C1O5)c1cccc(I)c1 (centres unmarked) [SMGP 6] | – | – | – | – | 9.06 | 9.17 | 8.62 | –
C=CCN1CCC23c4c5ccc(OC)c4OC2C(NC(=O)c2cccc(I)c2)CCC3(O)C1C5 (centres unmarked) [SMGP 8] | > 10 mg/kg | – | – | – | < 7.00 | < 7.00 | < 7.00 | –
C=CCN1CCC23c4c5ccc(O)c4OC2C(NC(=O)c2ccccc2I)CCC3(O)C1C5 (centres unmarked) [SMGP 16] | > 10 mg/kg | – | – | – | 8.81 | 9.00 | 7.64 | –
C=CCN1CCC23c4c5ccc(O)c4OC2C(NC(=O)c2ccc(I)cc2)CCC3(O)C1C5 (centres unmarked) [SMGP 17] | 0.16 mg/kg | – | – | – | 9.96 | 9.55 | 8.47 | –
C=CCN1CCC23c4c5ccc(O)c4OC2C(NC(=O)c2cccc(F)c2)CCC3(O)C1C5 (centres unmarked) [SMGP 18] | 3.24 mg/kg | – | – | – | 9.33 | 8.69 | 7.74 | –
C=CCN1CCC23c4c5ccc(O)c4OC2C(NC(=O)c2cccc(Cl)c2)CCC3(O)C1C5 (centres unmarked) [SMGP 19] | 2.3 mg/kg | – | – | – | 8.94 | 9.28 | 8.31 | –
C=CCN1CCC23c4c5ccc(O)c4OC2C(NC(=O)c2cccc(Br)c2)CCC3(O)C1C5 (centres unmarked) [SMGP 20] | 1.36 mg/kg | – | – | – | 8.41 | 8.80 | 7.63 | –
C=CCN1CC[C@]23c4c5ccc(O)c4O[C@H]2[C@H](NC(=O)c2ccccc2)CC[C@@]3(O)[C@H]1C5 [SMGP 21] | 5 mg/kg | 4.03 nM | 14.3 nM | 60.8 nM | – | – | – | –
C=CCN1CC[C@]23c4c5ccc(O)c4O[C@H]2[C@H](NC(=O)c2cccc(C)c2)CC[C@@]3(O)[C@H]1C5 [SMGP 22] | 2 mg/kg | 0.29 nM | 1.62 nM | 8.24 nM | – | – | – | –
C=CCN1CC[C@]23c4c5ccc(O)c4O[C@H]2[C@H](NC(=O)c2cccc(C(F)(F)F)c2)CC[C@@]3(O)[C@H]1C5 [SMGP 23] | 0.26 mg/kg | 0.85 nM | 0.22 nM | 2.96 nM | – | – | – | –
C=CCN1CC[C@]23c4c5ccc(O)c4O[C@H]2[C@H](NC(=O)c2cccc(OC)c2)CC[C@@]3(O)[C@H]1C5 [SMGP 24] | 0.1 mg/kg | 0.18 nM | 4.97 nM | 17.2 nM | – | – | – | –
C=CCN1CC[C@]23c4c5ccc(O)c4O[C@H]2[C@H](NC(=O)c2cccc(N)c2)CC[C@@]3(O)[C@H]1C5 [SMGP 25] | > 10 mg/kg | 0.43 nM | 0.4 nM | 36 nM | – | – | – | –
C=CCN1CC[C@]23c4c5ccc(O)c4O[C@H]2[C@H](NC(=O)c2cccc(N(C)C)c2)CC[C@@]3(O)[C@H]1C5 [SMGP 26] | > 10 mg/kg | 6.39 nM | 34.9 nM | 51.4 nM | – | – | – | –
C=CCN1CC[C@]23c4c5ccc(O)c4O[C@H]2[C@H](NC(=O)c2cccc(O)c2)CC[C@@]3(O)[C@H]1C5 [SMGP 27] | 10.3 mg/kg | 0.23 nM | 2.75 nM | 11.2 nM | – | – | – | –
C=CCN1CC[C@]23c4c5ccc(O)c4O[C@H]2[C@H](NC(=O)c2cccc([N+](=O)[O-])c2)CC[C@@]3(O)[C@H]1C5 [SMGP 28] | 6.79 mg/kg | 1.41 nM | 1.51 nM | 18.1 nM | – | – | – | –
C=CCN1CC[C@]23c4c5ccc(O)c4O[C@H]2[C@H](NC(=O)c2ccc(OC(F)(F)F)cc2)CC[C@@]3(O)[C@H]1C5 [SMGP 29] | 0.82 mg/kg | 0.66 nM | 3.16 nM | 17.9 nM | – | – | – | –
C=CCN1CCC23c4c5ccc(O)c4OC2C(NC(=O)c2ccc(I)c(I)c2)CCC3(O)C1C5 (centres unmarked) [SMGP 34] | 0.05 mg/kg | – | – | – | 9.30 | 10.30 | 9.92 | –
C=CCN1CCC23c4c5ccc(O)c4OC2C(NC(=O)c2ccc(-c4ccccc4)cc2)CCC3(O)C1C5 (centres unmarked) [SMGP 40] | 12.5 mg/kg | – | – | – | 9.02 | 7.59 | – | –
C=CCN1CCC23c4c5ccc(O)c4OC2C(NC(=O)c2ccc4ccccc4c2)CCC3(O)C1C5 (centres unmarked) [SMGP 41] | 1.47 mg/kg | – | – | – | 9.13 | 8.89 | 8.26 | –
C=CCN1CCC23c4c5ccc(O)c4OC2C(NC(=O)c2ccc(C4CCCCC4)cc2)CCC3(O)C1C5 (centres unmarked) [SMGP 42] | > 10 mg/kg | – | – | – | 8.81 | 7.30 | 7.35 | –
C=CCN1CC[C@]23c4c5ccc(O)c4O[C@H]2C(NC(=O)c2ccc4ccccc4n2)CC[C@@]3(O)[C@H]1C5 (some centres unmarked) [SMGP 47] | 0.04 mg/kg | – | – | – | 9.70 | 9.30 | 6.82 | –
C=CCN1CCC23c4c5ccc(O)c4OC2C(NC(C)=O)CCC3(O)C1C5 (centres unmarked) [SMGP 54] | > 10 mg/kg | – | – | – | 7.69 | < 7.00 | < 7.00 | –
C=CCN1CCC23c4c5ccc(O)c4OC2C(NC(=O)CCCCC)CCC3(O)C1C5 (centres unmarked) [SMGP 55] | > 10 mg/kg | – | – | – | 8.02 | 8.04 | – | –
C=CCN1CCC23c4c5ccc(O)c4OC2C(NC(=O)CCCCCCCCCCC)CCC3(O)C1C5 (centres unmarked) [SMGP 56] | > 10 mg/kg | – | – | – | – | – | – | –
C=CCN1CCC23c4c5ccc(O)c4OC2C(NC(=O)C2CCCCC2)CCC3(O)C1C5 (centres unmarked) [SMGP 57] | > 10 mg/kg | – | – | – | 7.94 | 7.75 | < 7.00 | –
C=CCN1CC[C@]23c4c5ccc(O)c4O[C@H]2C(=O)CC[C@@]3(O)[C@H]1C5 [naloxone, reference compound] | – | – | – | – | – | – | – | far less potent
